Experimental data taken from patent US8455475B2 (Gruenenthal GmbH, priority 2009, dated 2013).

Target: T1, rat B1R (bradykinin receptor 1) (Rattus norvegicus, UniProt P97583)
T1 construct: expressed in transfected cells; host or cells: CHO K1 cells
T1 sequence (P97583 1-337): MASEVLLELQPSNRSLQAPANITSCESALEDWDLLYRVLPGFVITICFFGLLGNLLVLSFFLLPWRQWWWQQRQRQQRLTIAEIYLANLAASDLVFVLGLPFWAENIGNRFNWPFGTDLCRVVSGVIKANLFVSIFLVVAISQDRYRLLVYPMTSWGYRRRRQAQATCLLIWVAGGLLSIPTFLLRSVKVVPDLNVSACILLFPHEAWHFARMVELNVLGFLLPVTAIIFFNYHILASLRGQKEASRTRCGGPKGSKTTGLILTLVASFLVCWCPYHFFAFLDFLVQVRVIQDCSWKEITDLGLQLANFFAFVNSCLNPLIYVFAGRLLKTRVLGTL
Test: FLIPR Ca2+ assay (Fluo-4) on CHO K1 cells stably transfected with the B1R gene of the rat (rB1R cells): % inhibition at 10 μM / IC50, agonist Des-Arg9-bradykinin
Format: cell-based
Details: for inhibition at 10 µM: CHO-K1, rat B1R
Protocol: The agonistic or antagonistic action of substances can be quantified on the bradykinin receptor 1 (B1R) of the human and rat species with ectopically expressing cell lines (CHO K1 cells) and with the aid of a Ca^2+-sensitive dyestuff (Fluo-4) in a fluorescent imaging plate reader (FLIPR). The figure in % activation is based on the Ca^2+ signal after addition of Lys-Des-Arg^9-bradykinin (0.5 nM) or Des-Arg^9-bradykinin (100 nM). Antagonists lead to a suppression of the Ca^2+ inflow after addition of the agonist. % inhibition compared with the maximum achievable inhibition is stated.
The agonistic or antagonistic action of substances can be determined on the bradykinin receptor 1 (B1R) of the human and rat species with the following assay. In accordance with this assay, the Ca^2+ inflow through the channel is quantified with the aid of a Ca^2+-sensitive dyestuff (type Fluo-4, Molecular Probes Europe BV, Leiden, Holland) in a fluorescent imaging plate reader (FLIPR, Molecular Devices, Sunnyvale, USA).
Chinese hamster ovary cells (CHO K1 cells) transfected stably with the human B1R gene (hB1R cells) or the B1R gene of the rat (rB1R cells) are used. For functional studies, these cells are plated out on black 96-well plates with a clear base (BD Biosciences, Heidelberg, Germany or Greiner, Frickenhausen, Germany) in a density of 20,000-35,000 cells/well. The cells are left overnight at 37° C. and 5% CO2 in culture medium (hB1R cells: Nutrient Mixture Ham's F12, Gibco Invitrogen GmbH, Karlsruhe, Germany or DMEM, Sigma-Aldrich, Taufkirchen, Germany; rB1R cells: D-MEM/F12, Gibco Invitrogen GmbH, Karlsruhe, Germany) with 10 vol. % FBS (foetal bovine serum, Gibco Invitrogen GmbH, Karlsruhe, Germany or PAN Biotech GmbH, Aidenbach, Germany). On the following day, the cells are loaded for 60 min at 37° C. with 2.13 μM Fluo-4 (Molecular Probes Europe BV, Leiden Holland) in HBSS buffer (Hank's buffered saline solution, Gibco Invitrogen GmbH, Karlsruhe, Germany) with 2.5 mM probenecid (Sigma-Aldrich, Taufkirchen, Germany) and 10 mM HEPES (Sigma-Aldrich, Taufkirchen, Germany). The plates are then washed 2× with HBSS buffer, and HBSS buffer which additionally contains 0.1% BSA (bovine serum albumin; Sigma-Aldrich, Taufkirchen, Germany), 5.6 mM glucose and 0.05% gelatine (Merck KGaA, Darmstadt, Germany) is added. After a further incubation of 20 minutes at room temperature, the plates are inserted into the FLIPR for the Ca^2+ measurement. Alternatively, the plates are washed with buffer A (15 mM HEPES, 80 mM NaCl, 5 mM KCl, 1.2 mM CaCl2, 0.7 mM MgSO4, 2 g/l glucose, 2.5 mM probenecid), buffer A is added and the plates are loaded with 2.5 μM Fluo-4 and 0.025% Pluronic F127 (Sigma-Aldrich, Taufkirchen, Germany). Thereafter, the cells are washed 2× with buffer A and incubated for 30 minutes at room temperature with buffer A, which additionally contains 0.05% BSA and 0.05% gelatine, and thereafter inserted into the FLIPR for the Ca^2+ measurement. The Ca^2+-dependent fluorescence is measured here before and after addition of substances (λex=488 nm, λem=540 nm). Quantification is by measurement of the highest fluorescence intensity (FC, fluorescence counts) over time.
The FLIPR protocol consists of 2 additions of substance. Test substances (10 μM) are first pipetted on to the cells and the Ca^2+ inflow is compared with the control (hB1R: Lys-Des-Arg^9-bradykinin>=50 nM; rB1R: Des-Arg^9-bradykinin 10 μM). This gives the result in % activation based on the Ca^2+ signal after addition of Lys-Des-Arg^9-bradykinin (>=50 nM) or Des-Arg^9-bradykinin (10 μM). After incubation for 10-20 minutes, Lys-Des-Arg^9-bradykinin (hB1R) or Des-Arg^9-bradykinin (rB1R) in the concentration of the EC80 is applied and the inflow of Ca^2+ is likewise determined. Antagonists lead to a suppression of the Ca^2+ inflow. % inhibition compared with the maximum achievable inhibition is calculated.
For determination of the IC50 value, the substances are added in various concentrations. […]

Molecule | % Inhibition (rat B1R) at 10 μM [%] | inhibition at 10 µM [%]
2,3-Dichloro-N-methyl-N-[6-(9-pyridin-4-yl-3,9-diazaspiro[5.5]undecane-3-carbonyl)-2,3-dihydro-1H-inden-1-yl]-benzenesulfonic acid amide [IND_CC-343] | 97 | 
2-Chloro-N-[6-[8-[(2-chloro-4-fluoro-phenyl)-methyl]-2,8-diazaspiro-[4.5]decane-2-carbonyl]-2,3-dihydro-1H-inden-1-yl]-6-fluoro-benzamide [IND_CC-741] | 100 | 
2-Chloro-N-[6-[9-[(1-methyl-1H-benzotriazol-5-yl)-methyl]-3,9-diazaspiro[5.5]-undecane-3-carbonyl]-2,3-dihydro-1H-inden-1-yl]-5-(trifluoromethyl)-benzamide [IND_CC-697] | 98 | 
2-Methyl-N-[6-(8-pyridin-4-yl-2,8-diazaspiro[4.5]decane-2-carbonyl)-2,3-dihydro-1H-inden-1-yl]-benzamide [IND_CC-358] | 104 | 
5-Chloro-2-fluoro-N-[6-[8-[3-(3-fluorophenyl)-propyl]-2,8-diazaspiro[4.5]decane-2-carbonyl]-2,3-dihydro-1H-inden-1-yl]-benzamide [IND_CC-674] | 67 | 
COc1ccc(C(=O)N(C)C2CCc3ccc(C(=O)N4CCC5(CC4)CCN(c4ccncc4)CC5)cc32)c(Cl)c1 (centres unmarked) [IND_CC-201, 2-Chloro-4-methoxy-N-methyl-N-[6-(9-pyridin-4-yl-3,9-diazaspiro[5.5]undecane-3-carbonyl)-2,3-dihydro-1H-inden-1-yl]-benzamide] |  | 99
COc1ccc(C(=O)NC2CCc3ccc(C(=O)N4CCC5(CC4)CCN(c4ccncc4)CC5)cc32)c(Cl)c1 (centres unmarked) [IND_CC-211, 2-Chloro-4-methoxy-N-[6-(9-pyridin-4-yl-3,9-diazaspiro[5.5]undecane-3-carbonyl)-2,3-dihydro-1H-inden-1-yl]-benzamide] |  | 104
COc1ccc(C(=O)NC2CCc3ccc(C(=O)N4CCC5(CC4)CCN(c4ccc(C(F)(F)F)cc4)CC5)cc32)c(Cl)c1 (centres unmarked) [IND_CC-213, 2-Chloro-4-methoxy-N-[6-[9-[4-(trifluoromethyl)-phenyl]-3,9-diazaspiro[5.5]undecane-3-carbonyl]-2,3-dihydro-1H-inden-1-yl]-benzamide] |  | 73
O=C(NC1CCc2ccc(C(=O)N3CCC4(CC3)CCN(c3ccc(C(F)(F)F)cc3)CC4)cc21)c1cc(F)ccc1Cl (centres unmarked) [IND_CC-222, 2-Chloro-5-fluoro-N-[6-[9-[4-(trifluoromethyl)-phenyl]-3,9-diazaspiro[5.5]undecane-3-carbonyl]-2,3-dihydro-1H-inden-1-yl]-benzamide] |  | 60
Cc1cccc(Cl)c1S(=O)(=O)N(C)C1CCc2ccc(C(=O)N3CCC4(CC3)CCN(c3ccncc3)CC4)cc21 (centres unmarked) [IND_CC-227, 2-Chloro-N,6-dimethyl-N-[6-(9-pyridin-4-yl-3,9-diazaspiro[5.5]undecane-3-carbonyl)-2,3-dihydro-1H-inden-1-yl]-benzenesulfonic acid amide] |  | 97
O=C(NC1CCc2ccc(C(=O)N3CCC4(CC3)CCN(c3ccc(C(F)(F)F)cc3)CC4)cc21)c1cc(F)c(F)cc1Cl (centres unmarked) [IND_CC-230, 2-Chloro-4,5-difluoro-N-[6-[9-[4-(trifluoromethyl)-phenyl]-3,9-diazaspiro[5.5]undecane-3-carbonyl]-2,3-dihydro-1H-inden-1-yl]-benzamide] |  | 104
N#Cc1ccccc1C(=O)NC1CCc2ccc(C(=O)N3CCC4(CC3)CCN(c3ccc(C(F)(F)F)cc3)CC4)cc21 (centres unmarked) [IND_CC-235, 2-Cyano-N-[6-[9-[4-(trifluoromethyl)-phenyl]-3,9-diazaspiro[5.5]undecane-3-carbonyl]-2,3-dihydro-1H-inden-1-yl]-benzamide] |  | 89
Cc1cccc(Cl)c1S(=O)(=O)NC1CCc2ccc(C(=O)N3CCC4(CC3)CCN(c3ccc(C(F)(F)F)cc3)CC4)cc21 (centres unmarked) [IND_CC-239, 2-Chloro-6-methyl-N-[6-[9-[4-(trifluoromethyl)-phenyl]-3,9-diazaspiro[5.5]-undecane-3-carbonyl]-2,3-dihydro-1H-inden-1-yl]-benzenesulfonic acid amide] |  | 71
O=C(NC1CCc2ccc(C(=O)N3CCC4(CC3)CCN(c3ccc(C(F)(F)F)cc3)CC4)cc21)c1c(Cl)cccc1Cl (centres unmarked) [IND_CC-286, 2,6-Dichloro-N-[6-[9-[4-(trifluoromethyl)-phenyl]-3,9-diazaspiro[5.5]undecane-3-carbonyl]-2,3-dihydro-1H-inden-1-yl]-benzamide] |  | 90
COc1ccc(C(=O)NC2CCc3ccc(C(=O)N4CCC5(CC4)CCN(c4ccncc4)CC5)cc32)c(F)c1 (centres unmarked) [IND_CC-297, 2-Fluoro-4-methoxy-N-[6-(9-pyridin-4-yl-3,9-diazaspiro[5.5]undecane-3-carbonyl)-2,3-dihydro-1H-inden-1-yl]-benzamide] |  | 107
COc1ccc(C(=O)NC2CCc3ccc(C(=O)N4CCC5(CC4)CCN(c4ccncc4)C5)cc32)c(F)c1 (centres unmarked) [IND_CC-298, 2-Fluoro-4-methoxy-N-[6-(2-pyridin-4-yl-2,8-diazaspiro[4.5]decane-8-carbonyl)-2,3-dihydro-1H-inden-1-yl]-benzamide] |  | 74
Cc1cc(OC(F)(F)F)ccc1C(=O)NC1CCc2ccc(C(=O)N3CCC4(CC3)CCN(c3ccncc3)CC4)cc21 (centres unmarked) [IND_CC-300, 2-Methyl-N-[6-(9-pyridin-4-yl-3,9-diazaspiro[5.5]undecane-3-carbonyl)-2,3-dihydro-1H-inden-1-yl]-4-(trifluoromethyloxy)-benzamide] |  | 65
Cc1ccc(C(=O)NC2CCc3ccc(C(=O)N4CCC5(CC4)CCN(c4ccncc4)C5)cc32)c(F)c1 (centres unmarked) [IND_CC-306, 2-Fluoro-4-methyl-N-[6-(2-pyridin-4-yl-2,8-diazaspiro[4.5]decane-8-carbonyl)-2,3-dihydro-1H-inden-1-yl]-benzamide] |  | 106
COc1ccc(C(=O)NC2c3cc(C(=O)N4CCC5(CC4)CCN(c4ccncc4)CC5)ccc3CC2(C)C)c(F)c1 (centres unmarked) [IND_CC-311, N-[2,2-Dimethyl-6-(9-pyridin-4-yl-3,9-diazaspiro[5.5]undecane-3-carbonyl)-1,3-dihydro-inden-1-yl]-2-fluoro-4-methoxy-benzamide] |  | 83
COc1ccc(C(=O)NC2CCc3ccc(C(=O)N4CCC5(CCN(c6ccncc6)CC5)C4)cc32)c(F)c1 (centres unmarked) [IND_CC-313, 2-Fluoro-4-methoxy-N-[6-(8-pyridin-4-yl-2,8-diazaspiro[4.5]decane-2-carbonyl)-2,3-dihydro-1H-inden-1-yl]-benzamide] |  | 95
